Columns and labels:
[1] = test system: crabgrass (Digitaria sanguinalis L.); assay: Test Example 1: foliar application of compound No. 1 wettable powder with surfactant, visual growth inhibition, crabgrass; format: in vivo; details: 15 g a.i./ha wettable powder, 21st day
Protocol: (§1) Upland field soil was put into a 1/1,000,000 ha pot, and seeds of crabgrass (Digitaria sanguinalis L.) and velvetleaf (Abutilon theophrasti L.) were respectively sown and grown in a greenhouse. When crabgrass reached 4.2 to 5.0 leaf stage and velvetleaf reached 3.5 to 4.3 leaf stage, a prescribed amount (15 g a.i./ha) of a wettable powder comprising compound No. 1 as an active ingredient, prepared in accordance with the above Example 1, was diluted with water corresponding to 300 L/ha (containing 0.05 vol % of a surfactant containing the POA alkyl ether phosphate), followed by foliar application (the present invention). Further, for comparison, foliar application was carried out in the same manner by using an alkylaryl polyglycol ether surfactant (tradename: CITOWETT) at a concentration of 0.1 vol %, instead of the above surfactant (comparison).
(§2) On the 21st day after the application, the state of growth of the plants was visually observed (growth inhibition rate (%)=0 (the same as the untreated plot) to 100 (complete kill)), and the results as shown in Tables b1 and b2 were obtained.

[2] = test system: velvetleaf (Abutilon theophrasti L.); assay: Test Example 1: foliar application of compound No. 1 wettable powder with surfactant, visual growth inhibition, velvetleaf; format: in vivo; details: 15 g a.i./ha wettable powder, 21st day
Protocol: as §1, §2

[3] = test system: crabgrass (Digitaria sanguinalis L.); assay: Test Example 4: foliar application of compound No. 2-27 wettable powder with surfactant, crabgrass; format: in vivo; details: 15 g a.i./ha wettable powder, 21st day
Protocol: as §1, §2
(§3) The results as shown in Tables b6 and b7 were obtained in the same manner as in the above Test Example 1 except that a prescribed amount (15 g a.i./ha or 7 g a.i./ha) of a wettable powder comprising compound No. 2-27 as an active ingredient, prepared in accordance with the above Example 4, was used.

[4] = test system: velvetleaf (Abutilon theophrasti L.); assay: Test Example 4: foliar application of compound No. 2-27 wettable powder with surfactant, velvetleaf; format: in vivo; details: 7 g a.i./ha wettable powder, 21st day
Protocol: as §1, §2, §3

crabgrass [5] = assay: Test Example 9: foliar application of compound No. 2-39 wettable powder with surfactant, crabgrass; format: in vivo, Digitaria sanguinalis L.; details: 15 g a.i./ha wettable powder, 21st day
Text: as §2
(§4) Upland field soil was put into a 1/1,000,000 ha pot, and seeds of crabgrass were sown and grown in a greenhouse. When crabgrass reached 4.0 to 4.5 leaf stage, a prescribed amount (15 g a.i./ha) of a wettable powder comprising compound No. 2-39 as an active ingredient, prepared in accordance with the above Example 1, was diluted with water corresponding to 300 L/ha (containing 0.05 vol % of a surfactant containing the POA alkyl ether phosphate), followed by foliar application. Further, for comparison, foliar application was carried out in the same manner by using SILWETT L-77 at a concentration of 0.1 vol % instead of the above surfactant.
On the 21st day after the application, the state of growth of the plant was evaluated in the same manner as in Test Example 1, and the results as shown in Table b13 were obtained.

crabgrass [6] = assay: Test Example 11: foliar application of compound No. 4-3 wettable powder with surfactant, crabgrass; format: in vivo, Digitaria sanguinalis L.; details: 15 g a.i./ha wettable powder, 21st day
Text: as §2
as §4, with “5.0” for “4.5”, “4-3” for “2-39”, “L-77 (tradename)” for “L-77”
On the 21st day after the application, the state of growth of the plant was evaluated in the same manner as in Test Example 1, and the results as shown in Table b16 were obtained.

crabgrass [7] = assay: Test Example 7: foliar application of compound No. 2-1 wettable powder with surfactant, crabgrass; format: in vivo, Digitaria sanguinalis L.; details: 15 g a.i./ha wettable powder, 21st day
Text: as §2
as §4, with “5.0” for “4.5”, “2-1” for “2-39”, “using a silicon surfactant (tradename:” for “using”, “L-77)” for “L-77”
On the 21st day after the application, the state of growth of the plant was evaluated in the same manner as in Test Example 1, and the results as shown in Table b10 were obtained.

[8] = test system: crabgrass (Digitaria sanguinalis L.); assay: Test Example 2: foliar application of compound No. 53 suspension concentrate with surfactant, crabgrass; format: in vivo; details: 15 g a.i./ha water-based suspension concentrate, 21st day
Protocol: as §1, §2
(§5) The results as shown in Tables b3 and b4 were obtained in the same manner as the above Test Example 1 except that a prescribed amount (15 g a.i./ha) of a water-based suspension concentrate comprising compound No. 53 as an active ingredient, prepared in accordance with the above Example 2, was used.

[9] = test system: velvetleaf (Abutilon theophrasti L.); assay: Test Example 2: foliar application of compound No. 53 suspension concentrate with surfactant, velvetleaf; format: in vivo; details: 15 g a.i./ha water-based suspension concentrate, 21st day
Protocol: as §1, §2, §5

crabgrass [10] = assay: Test Example 3: foliar application of compound No. 238 suspension concentrate with surfactant, crabgrass; format: in vivo, Digitaria sanguinalis L.; details: 30 g a.i./ha water-based suspension concentrate, 21st day
Text: On the 21st day after the application, the state of growth of the plants was visually observed (growth inhibition rate (%)=0 (the same as the untreated plot) to 100 (complete kill)), and the results as shown in Tables b1 and b2 were obtained. Upland field soil was put into a 1/1,000,000 ha pot, and seeds of crabgrass were sown and grown in a greenhouse. When crabgrass reached 4.5 to 5.0 leaf stage, a prescribed amount (30 g a.i./ha) of a water-based suspension concentrate comprising compound No. 238 as an active ingredient, prepared in accordance with the above Example 6, was diluted with water corresponding to 300 L/ha (containing 0.05 vol % of a surfactant containing the POA alkyl ether phosphate), followed by foliar application. Further, for comparison, foliar application was carried out in the same manner by using CITOWETT (tradename) at a concentration of 0.3 vol %, instead of the above surfactant. On the 21st day after the application, the state of growth of the plant was evaluated in the same manner as in Test Example 1, and the results as shown in Table b5 were obtained.

crabgrass [11] = assay: Test Example 6: foliar application of compound No. 238 suspension concentrate with surfactant and optional oil or emulsifying agent, crabgrass; format: in vivo, Digitaria sanguinalis L.; details: 7 g a.i./ha suspension concentrate, ADEKA COL PS-440E 0.03 vol %, 20th day
Text: as §2
Upland field soil was put into a 1/1,000,000 ha pot, and seeds of crabgrass were sown and grown in a greenhouse. When crabgrass reached 3.8 to 4.1 leaf stage, a prescribed amount (7 g a.i./ha) of a water-based suspension concentrate comprising compound No. 238 as an active ingredient, prepared in accordance with the above Example 3, was diluted with water corresponding to 300 L/ha (containing 0.03 vol % of a surfactant containing the POA alkyl ether phosphate and optionally having 0.03 vol % of a fatty acid ester, a hydrocarbon solvent or an emulsifying agent added), followed by foliar application. The fatty acid ester used here was AGNIQUE Me 18RD-F (tradename), the hydrocarbon solvent was Solvesso 150 (tradename) and the emulsifying agent was a mixture of a polyoxyethylene sorbitol tetraoleate, a polyoxyethylene castor oil and calcium dodecylbenzene sulfonate.
On the 20th day after the application, the state of growth of the plant was evaluated in the same manner as in Test Example 1, and the results as shown in Table b9 were obtained.

[12] = surfactant ADECA COL PS-440E 0.05 vol %, present invention
[13] = surfactant CITOWETT 0.1 vol %, comparison
[14] = surfactant NIKKOL DDP-8 0.05 vol %, present invention
[15] = surfactant PLYSURF A219B 0.05 vol %, present invention
[16] = surfactant PHOSPHANOL RS-410 0.05 vol %, present invention
[17] = surfactant SILWETT L-77 0.1 vol %, comparison
[18] = surfactant NIKKOL TDP-8 0.05 vol %, present invention
[19] = surfactant PHOSPHANOL RS-710 0.05 vol %, present invention

Structure (SMILES): CCSC(=O)Oc1c(C(=O)c2ccc(S(C)(=O)=O)c(C(=O)OC)c2C)cnn1C [Compound No. 1]
- Growth inhibition rate (%) of crabgrass [1, 12]: 70%
- Growth inhibition rate (%) of crabgrass [1, 13]: 50%
- Growth inhibition rate (%) of crabgrass [1, 14]: 73%
- Growth inhibition rate (%) of crabgrass [1, 15]: 60%
- Growth inhibition rate (%) of velvetleaf [2, 12]: 93%
- Growth inhibition rate (%) of velvetleaf [2, 13]: 73%
- Growth inhibition rate (%) of velvetleaf [2, 14]: 93%
- Growth inhibition rate (%) of velvetleaf [2, 15]: 90%

Structure (SMILES): COCCOc1c(S(C)(=O)=O)ccc(C(=O)c2cnn(C)c2O)c1C [Compound No. 2-27]
- Growth inhibition rate (%) of crabgrass [3, 12]: 90%
- Growth inhibition rate (%) of crabgrass [3, 13]: 78%
- Growth inhibition rate (%) of crabgrass [3, 14]: 90%
- Growth inhibition rate (%) of crabgrass [3, 15]: 94%
- Growth inhibition rate (%) of velvetleaf [4, 12]: 80%
- Growth inhibition rate (%) of velvetleaf [4, 13]: 63%
- Growth inhibition rate (%) of velvetleaf [4, 14]: 95%
- Growth inhibition rate (%) of velvetleaf [4, 15]: 70%

Structure (SMILES): CCOCc1c(S(C)(=O)=O)ccc(C(=O)c2cnn(C)c2O)c1C [2-39]
- Growth inhibition rate (%) of crabgrass (crabgrass [5]; [12]): 93%
- Growth inhibition rate (%) of crabgrass (crabgrass [5]; [14]): 93%
- Growth inhibition rate (%) of crabgrass (crabgrass [5]; [16]): 70%
- Growth inhibition rate (%) of crabgrass (crabgrass [5]; [17]): 20%

Structure (SMILES): CCOC(=O)OC(C)Oc1c(C(=O)c2ccc(S(C)(=O)=O)c(OCCOC)c2C)cnn1CC (centres unmarked) [Compound No. 4-3]
- Growth inhibition rate (%) of crabgrass (crabgrass [6]; [12]): 83%
- Growth inhibition rate (%) of crabgrass (crabgrass [6]; [14]): 80%
- Growth inhibition rate (%) of crabgrass (crabgrass [6]; [18]): 85%
- Growth inhibition rate (%) of crabgrass (crabgrass [6]; surfactant PHOSPHANOL ML-240 0.05 vol %, present invention): 90%
- Growth inhibition rate (%) of crabgrass (crabgrass [6]; [16]): 80%
- Growth inhibition rate (%) of crabgrass (crabgrass [6]; [19]): 80%
- Growth inhibition rate (%) of crabgrass (crabgrass [6]; surfactant PHOSPHOLAN PS-236 0.05 vol %, present invention): 80%
- Growth inhibition rate (%) of crabgrass (crabgrass [6]; [15]): 98%
- Growth inhibition rate (%) of crabgrass (crabgrass [6]; [17]): 55%

Structure (SMILES): COC(=O)c1c(S(C)(=O)=O)ccc(C(=O)c2cnn(C)c2O)c1C [2-1]
- Growth inhibition rate (%) of crabgrass (crabgrass [7]; [19]): 75%
- Growth inhibition rate (%) of crabgrass (crabgrass [7]; [15]): 70%
- Growth inhibition rate (%) of crabgrass (crabgrass [7]; [17]): 10%

Structure (SMILES): CCSC(=O)Oc1c(C(=O)c2ccc(S(C)(=O)=O)c(OCCOC)c2C)cnn1C [Compound No. 53]
- Growth inhibition rate (%) of crabgrass [8, 12]: 90%
- Growth inhibition rate (%) of crabgrass [8, 13]: 50%
- Growth inhibition rate (%) of crabgrass [8, 14]: 90%
- Growth inhibition rate (%) of crabgrass [8, 15]: 78%
- Growth inhibition rate (%) of velvetleaf [9, 12]: 93%
- Growth inhibition rate (%) of velvetleaf [9, 13]: 78%
- Growth inhibition rate (%) of velvetleaf [9, 14]: 98%
- Growth inhibition rate (%) of velvetleaf [9, 15]: 90%

Structure (SMILES): COCCOc1c(S(C)(=O)=O)ccc(C(=O)c2cnn(C)c2OC(=O)SC(C)(C)C)c1C [Compound No. 238]
- Growth inhibition rate (%) of crabgrass (crabgrass [10]; surfactant ADEKA COL PS-440E 0.05 vol %, present invention): 75%
- Growth inhibition rate (%) of crabgrass (crabgrass [10]; surfactant CITOWETT 0.3 vol %, comparison): 50%
- Growth inhibition rate (%) of crabgrass (crabgrass [10]; [14]): 90%
- Growth inhibition rate (%) of crabgrass (crabgrass [10]; [18]): 90%
- Growth inhibition rate (%) of crabgrass (crabgrass [10]; surfactant PHOSPHANOL RS710 0.05 vol %, present invention): 80%
- Growth inhibition rate (%) of crabgrass (crabgrass [10]; [15]): 90%
- Growth inhibition rate (%) of crabgrass (crabgrass [11]; fatty acid ester and emulsifying agent added): 83%
- Growth inhibition rate (%) of crabgrass (crabgrass [11]; fatty acid ester, hydrocarbon solvent and emulsifying agent added): 85%
- Growth inhibition rate (%) of crabgrass (crabgrass [11]; hydrocarbon solvent and emulsifying agent added): 83%
- Growth inhibition rate (%) of crabgrass (crabgrass [11]; no fatty acid ester, hydrocarbon solvent or emulsifying agent): 73%
